# Data from patent US20210254101A1, “METHODS FOR TREATING SPINAL CORD INJURY” (THE CHILDREN'S MEDICAL CENTER CORPORATION, priority 2018, published 2021).
# Test system: propriospinal and brain-derived descending axons
# Experiment: Axon regrowth tracing: retrograde HiRet-mCherry, anterograde AAV-ChR2, 5-HT immunohistochemistry
# Format: in vivo, mouse
# Procedure: To test these possibilities, it was determined whether CLP290 increased the regrowth of spared propriospinal axons, and/or their connecting axons from the brain. To analyze neuronal projections to the hindlimb locomotor control center in each condition, a retrograde tracing pseudotyped lentiviral vector (HiRet) expressing mCherry (HiRet-mCherry) (Kato et al., 2011; Wang et al., 2017; Liu et al., 2017) was injected into the lumbar enlargement (L2-L4). At 2 weeks after injury, most retrogradely labeled neurons were found in the spinal cord segments between and around the lesions, with few above the lesion and none in the brain ([…]). […] Similarly, the sprouting of serotonergic axons detected by 5-HT immunohistochemistry was also not affected by CLP290 treatment (FIG. 9D-9F). Thus, it is unlikely that CLP290 acts by promoting the regrowth of brain-derived descending axons into the relay zone, or propriospinal axons projecting to the lumbar spinal cord.
# For reticulospinal tracing experiments (procedure was described previously (Esposito et al., 2014)), AAV2/8-ChR2-YFP and AAV2/8-ChR2-mCherry were injected into the mouse right and left reticular formation in the brain stem respectively. For CST tracing experiments (procedure was described previously (Liu et al., 2010; Liu et al., 2017)), AAV2/8-ChR2-mCherry was injected to the mouse right sensorimotor cortex (all AAV titers were adjusted to 0.5-5×10^13 copies/ml for injection, produced by The Viral Core, Boston Children's Hospital). For lumbar level retrograde tracing, vectors of HiRet-mCherry (lenti-virus titers were adjusted to 1.6-2×10^12 copies/ml for injection) were constructed based on the HiRet-lenti backbone (Kinoshita et al., 2012). Injection procedure was described previously (Wang et al., 2017), in which HiRet-mCherry is injected into left or right lumbar spinal cord from segments 2-4.
# Spinal cord transverse and horizontal sections were imaged with a confocal laser-scanning microscope (Zeiss 700 or Zeiss 710). To quantify and compare fluorescence intensity of: reticular spinal tract projections (RFP^+ and GFP^+), and corticospinal tract (CST) projections (GFP^+), at different transverse spinal cord segments sections (FIGS. 10A and 10C); as well as 5HT axonal staining (FIG. 10B). All images, used for analysis under multiple conditions, were taken using the same optical parameters to avoid saturation. Densitometry measurements were taken by using FIJI software, after being sub-thresholded to the background and normalized by area.
# aTo quantify and compare the retrograde HiRet-marked cell body of spinal neurons in different treatments, all images were decomposed to individual channels and planes. They were aligned and quantified using custom-developed MATLAB codes. […]
smiles,measurement,setting,value
"O=C1N=C(N2CCCCN2)S/C1=C\c1ccc(F)cc1OC(=O)N1CCCC1 [CLP290, [5-Fluoro-2-[(Z)-(2-hexahydropyridazin-1-yl-4-oxo-thiazol-5-ylidene)methyl]phenyl] pyrrolidine-1-carboxylate]",sprouting of serotonergic axons,"5-HT immunohistochemistry, FIG. 9D-9F",not affected
same,number of retrogradely traced neurons in the spinal cord,"HiRet-mCherry injected into L2-L4, 10 weeks after injury, FIGS. 8C and 8F",did not affect these measures
same,sprouting of descending brainstem reticulospinal axons,"anterograde tracing with AAV-ChR2-mCherry and AAV-ChR2-GFP, 2 and 10 weeks after injury, FIG. 9A-9C",failed to reveal increased sprouting
same,sprouting of corticospinal axons,"anterograde tracing, 2 and 10 weeks after injury, FIG. 9G-9I",failed to reveal increased sprouting
